Laboratory results published in paper PMC2873071 (Nature chemical biology, 2010).

Target: T1, glucocerebrosidase (GC; Cerezyme, recombinant WT GC) (Homo sapiens, UniProt P04062)
T1 sequence (P04062 40-536): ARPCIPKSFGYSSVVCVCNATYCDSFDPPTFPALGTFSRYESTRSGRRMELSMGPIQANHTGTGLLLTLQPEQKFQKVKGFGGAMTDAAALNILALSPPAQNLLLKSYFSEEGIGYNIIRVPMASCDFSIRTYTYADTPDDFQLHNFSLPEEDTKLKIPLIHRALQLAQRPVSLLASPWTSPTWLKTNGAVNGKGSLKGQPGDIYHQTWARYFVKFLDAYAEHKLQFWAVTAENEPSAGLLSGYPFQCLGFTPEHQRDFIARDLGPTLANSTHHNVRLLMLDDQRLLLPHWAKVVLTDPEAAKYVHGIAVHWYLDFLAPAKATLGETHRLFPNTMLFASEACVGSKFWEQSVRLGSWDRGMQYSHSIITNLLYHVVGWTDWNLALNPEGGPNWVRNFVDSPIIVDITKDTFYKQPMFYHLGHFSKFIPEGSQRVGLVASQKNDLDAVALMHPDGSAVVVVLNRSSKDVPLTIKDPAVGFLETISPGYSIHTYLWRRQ
Experiment: in vitro enzyme inhibition assay with recombinant GC
Type: biochemical

O=C1CN(/N=C/c2ccc(-c3ccc([N+](=O)[O-])cc3)o2)C(O)=N1 [compound 3, dantrolene]
IC50: ~90 µM
